Source: the supplement of paper PMC10307832

Legend:
Assay in all cases: relative viability (nuclei count vs DMSO), 5 days (fraction); higher = more cells survive
[1] = system: NCI-H2405
Procedure, shortened: (§1)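 Relative viability was taken as the ratio of nuclei in treated wells to nuclei in vehicle wells. Lung cancer cell lines in 1536-well plates received compounds by pin tool one day after seeding, either one drug alone or a fixed anchor-drug dose plus five library-drug doses (not always all listed) in √10 steps. Nuclei were counted on 4× images after 5 days of treatment, and values are medians of duplicate plates.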

[2] = system: LC-2-ad
Procedure, shortened: as §1

[3] = system: HCC-366
Procedure, shortened: as §1

[4] = system: NCI-H2228
Procedure, shortened: as §1

[5] = system: NCI-H2347
Procedure, shortened: as §1

[6] = system: CAL-12T
Procedure, shortened: as §1

[7] = system: NCI-H1734
Procedure, shortened: as §1

[8] = system: SW 1573
Procedure, shortened: as §1

[9] = system: LK-2
Procedure, shortened: as §1

[10] = system: NCI-H1993
Procedure, shortened: as §1

[11] = system: NCI-H596
Procedure, shortened: as §1

[12] = system: SK-MES-1
Procedure, shortened: as §1

[13] = system: NCI-H2009
Procedure, shortened: as §1

[14] = system: RERF-LC-KJ
Procedure, shortened: as §1

[15] = system: PC-14
Procedure, shortened: as §1

[16] = system: HCC-78
Procedure, shortened: as §1

[17] = system: NCI-H2085
Procedure, shortened: as §1

[18] = system: EMC-BAC-2
Procedure, shortened: as §1

[19] = system: NCI-H1355
Procedure, shortened: as §1

[20] = system: NCI-H3122
Procedure, shortened: as §1

[21] = system: NCI-H838
Procedure, shortened: as §1

[22] = system: HOP-62
Procedure, shortened: as §1

[23] = system: ChaGo-K-1
Procedure, shortened: as §1

## Cc1cnc(-c2cnc(NCCNc3ccc(C#N)cn3)nc2-c2ccc(Cl)cc2Cl)[nH]1 + O=C(CCCCCCC(=O)Nc1ccccc1)NO [Vorinostat] (partner 1 µM)
[1]; first compound 0.08 µM
  relative viability: 1.02
[1]; first compound 0.253 µM
  relative viability: 0.985
[1]; first compound 0.8 µM
  relative viability: 0.909
[1]; first compound 2.53 µM
  relative viability: 0.661
[2]; first compound 0.08 µM
  relative viability: 0.708
[2]; first compound 0.8 µM
  relative viability: 0.705
[2]; first compound 2.53 µM
  relative viability: 0.603
[3]; first compound 0.08 µM
  relative viability: 0.332
[3]; first compound 0.253 µM
  relative viability: 0.24
[3]; first compound 0.8 µM
  relative viability: 0.31
[3]; first compound 2.53 µM
  relative viability: 0.369
[4]; first compound 0.08 µM
  relative viability: 0.891
[4]; first compound 0.253 µM
  relative viability: 0.642
[4]; first compound 0.8 µM
  relative viability: 0.668
[4]; first compound 2.53 µM
  relative viability: 0.693
[5]; first compound 0.08 µM
  relative viability: 0.56
[5]; first compound 0.253 µM
  relative viability: 0.568
[5]; first compound 0.8 µM
  relative viability: 0.604
[5]; first compound 2.53 µM
  relative viability: 0.597
[6]; first compound 0.08 µM
  relative viability: 0.928
[6]; first compound 0.253 µM
  relative viability: 0.702
[6]; first compound 0.8 µM
  relative viability: 0.848
[6]; first compound 2.53 µM
  relative viability: 0.807
[7]; first compound 0.08 µM
  relative viability: 0.88
[7]; first compound 0.253 µM
  relative viability: 0.693
[7]; first compound 0.8 µM
  relative viability: 0.745
[7]; first compound 2.53 µM
  relative viability: 0.661
[8]; first compound 0.08 µM
  relative viability: 0.849
[8]; first compound 0.253 µM
  relative viability: 0.815
[8]; first compound 0.8 µM
  relative viability: 0.463
[8]; first compound 2.53 µM
  relative viability: 0.224
[9]; first compound 0.08 µM
  relative viability: 0.274
[9]; first compound 0.253 µM
  relative viability: 0.331
[9]; first compound 0.8 µM
  relative viability: 0.286
[9]; first compound 2.53 µM
  relative viability: 0.318
[10]; first compound 0.08 µM
  relative viability: 1.26
[10]; first compound 0.253 µM
  relative viability: 0.761
[10]; first compound 0.8 µM
  relative viability: 0.727
[10]; first compound 2.53 µM
  relative viability: 0.76
[11]; first compound 0.08 µM
  relative viability: 0.544
[11]; first compound 0.253 µM
  relative viability: 0.568
[11]; first compound 0.8 µM
  relative viability: 0.501
[11]; first compound 2.53 µM
  relative viability: 0.688
[12]; first compound 0.08 µM
  relative viability: 1.07
[12]; first compound 0.253 µM
  relative viability: 0.977
[12]; first compound 0.8 µM
  relative viability: 1.19
[12]; first compound 2.53 µM
  relative viability: 1.24
[13]; first compound 0.08 µM
  relative viability: 0.738
[13]; first compound 0.253 µM
  relative viability: 0.676
[13]; first compound 0.8 µM
  relative viability: 0.659
[13]; first compound 2.53 µM
  relative viability: 0.725
[14]; first compound 0.08 µM
  relative viability: 0.815
[14]; first compound 0.253 µM
  relative viability: 0.565
[14]; first compound 0.8 µM
  relative viability: 0.58
[14]; first compound 2.53 µM
  relative viability: 0.677
[15]; first compound 0.08 µM
  relative viability: 0.851
[15]; first compound 0.253 µM
  relative viability: 0.603
[15]; first compound 0.8 µM
  relative viability: 0.727
[15]; first compound 2.53 µM
  relative viability: 0.587
[16]; first compound 0.08 µM
  relative viability: 0.553
[16]; first compound 0.253 µM
  relative viability: 0.438
[16]; first compound 0.8 µM
  relative viability: 0.39
[16]; first compound 2.53 µM
  relative viability: 0.427
[17]; first compound 0.08 µM
  relative viability: 0.886
[17]; first compound 0.253 µM
  relative viability: 0.769
[17]; first compound 0.8 µM
  relative viability: 0.824
[17]; first compound 2.53 µM
  relative viability: 0.997
[18]; first compound 0.08 µM
  relative viability: 0.46
[18]; first compound 0.253 µM
  relative viability: 0.397
[18]; first compound 0.8 µM
  relative viability: 0.373
[18]; first compound 2.53 µM
  relative viability: 0.372
[19]; first compound 0.08 µM
  relative viability: 0.632
[19]; first compound 0.253 µM
  relative viability: 0.544
[19]; first compound 0.8 µM
  relative viability: 0.633
[19]; first compound 2.53 µM
  relative viability: 0.651
[20]; first compound 0.08 µM
  relative viability: 0.989
[20]; first compound 0.8 µM
  relative viability: 0.934
[20]; first compound 2.53 µM
  relative viability: 0.951
[21]; first compound 0.08 µM
  relative viability: 0.726
[21]; first compound 0.253 µM
  relative viability: 0.723
[21]; first compound 0.8 µM
  relative viability: 0.856
[21]; first compound 2.53 µM
  relative viability: 1.06
[22]; first compound 0.08 µM
  relative viability: 0.733
[22]; first compound 0.8 µM
  relative viability: 0.545
[22]; first compound 2.53 µM
  relative viability: 0.594
[23]; first compound 0.08 µM
  relative viability: 0.742
[23]; first compound 0.253 µM
  relative viability: 0.649
[23]; first compound 0.8 µM
  relative viability: 0.604
[23]; first compound 2.53 µM
  relative viability: 0.664
